Test [1] concerns the target Cyclin-dependent kinase 2/cyclin A (Homo sapiens, UniProt P24941). Nature of the test: In vitro inhibitory concentration against cyclin-dependent kinase 2-cyclin A complex using ATP/P33gamma-ATP mix as radioligand. In kind it is protein-complex assay.
A further test deals with A2780. Nature of the test: Antiproliferative activity against human A2780 cells. In kind it is functional, cell-based.

As for `O=C(Nc1cc(Cc2ccccc2)[nH]n1)c1ccc(Br)cc1`, the IC50 (usually the concentration that inhibits the measured activity by half) in test [1] was above 10000 nM.

Regarding `COc1cccc(C(=O)Nc2cc(C3CC3)n[nH]2)c1`, the IC50 in test [1] stood at 600 nM.

In test [1], `COc1ccccc1C(=O)Nc1cc(C2CC2)[nH]n1` gave an IC50 above 10000 nM.

For the molecule `O=C(Cc1ccc(-c2ccc(C(=O)O)cc2)cc1)Nc1cc(C2CC2)[nH]n1`, the IC50 was above 20000 nM in the test on A2780 and 11 nM in test [1].

Turning to `Cc1cc(NC(=O)c2ccccc2)n[nH]1`, in test [1], the IC50 was 1500 nM.

Consider `O=C(Cc1ccccc1)Nc1cc(C2CC2)[nH]n1`, for which the IC50 was determined as 1400 nM with A2780 and 48 nM in test [1].

Consider `COc1cccc(CC(=O)Nc2cc(C3CC3)[nH]n2)c1`, for which the IC50 in the test on A2780 is above 20000 nM.

As to `O=C(Nc1cc(C2CCC2)[nH]n1)c1ccc(Br)cc1`, in test [1], the IC50 is 90 nM.

In test [1], `O=C(Nc1cc(C2CC2)[nH]n1)c1ccc(Cl)c(Cl)c1` registered an IC50 of 83 nM.

In test [1], `COc1ccc(C(=O)Nc2cc(C3CC3)[nH]n2)cc1` had an IC50 of 705 nM.

In the case of `O=C(Cc1ccc(-c2cccc(F)c2)cc1)Nc1cc(C2CC2)[nH]n1`, the IC50 with A2780 came to 182 nM; in test [1], 4 nM.

For `CC(C)c1cc(NC(=O)c2ccc(Br)cc2)n[nH]1`, the IC50 in test [1] turned out to be 200 nM.

Turning to `CCCc1cc(NC(=O)c2ccc(Br)cc2)n[nH]1`, in test [1], the half-inhibitory concentration (IC50) turned out to be 650 nM.

In test [1], `CCC(C)c1cc(NC(=O)c2ccc(Br)cc2)[nH]n1` (stereo not given) showed an IC50 above 10000 nM.

Consider `O=C(Cc1ccc(OCCN2CCCC2)cc1)Nc1cc(C2CC2)[nH]n1`, for which, in the test on A2780, it took 6980 nM to reach half-maximal inhibition (IC50).

`O=C(Cc1cccc2ccccc12)Nc1cc(C2CC2)[nH]n1` registered an IC50 in the test on A2780 of 900 nM.

As for `O=C(Nc1cc(C2CC2)[nH]n1)c1ccc(Br)cc1`, the IC50 in test [1] was 34 nM.

`O=C(Nc1cc(C2CCCC2)[nH]n1)c1ccc(Br)cc1`: in test [1], the IC50 stood at 50 nM.

In turn, `CC(C)(C)c1cc(NC(=O)c2ccc(Br)cc2)n[nH]1` registered an IC50 in test [1] above 10000 nM.

With `NC(=O)c1ccc(-c2ccc(CC(=O)Nc3cc(C4CC4)[nH]n3)cc2)cc1`, the 50% inhibitory concentration (IC50) in the test on A2780 worked out at 1470 nM; in test [1], 4 nM.

Consider `NC(=O)c1ccc(CC(=O)Nc2cc(C3CC3)[nH]n2)cc1`, for which the figures for the IC50 (in the test on A2780; in test [1]) were 2840 nM and 74 nM, respectively.

In turn, `CCCC(=O)Nc1cc(C)[nH]n1` showed an IC50 in test [1] above 10000 nM.

Take `O=C(Nc1cc(C2CC2)[nH]n1)c1cccc(Cl)c1`: the IC50 in test [1] was 1000 nM.

With `Cc1cccc(-c2ccc(CC(=O)Nc3cc(C4CC4)[nH]n3)cc2)c1`, the IC50 in the test with A2780 was 205 nM; in test [1], 9 nM.

Molecule `O=C(Cc1ccc(-c2ccccc2)cc1)Nc1cc(C2CC2)[nH]n1` showed an IC50 in the test with A2780 of 111 nM.

Regarding `O=C(Nc1cc(-c2ccccc2)[nH]n1)c1ccc(Br)cc1`, the IC50 in test [1] is above 10000 nM.

In the case of `O=C(Nc1cc(C2CC2)[nH]n1)c1c(Cl)cccc1Cl`, the concentration for half-maximal inhibition (IC50) in test [1] was above 10000 nM.

In test [1], `O=C(Nc1cc(C2CC2)[nH]n1)c1cccc(C(F)(F)F)c1` yielded an IC50 of 500 nM.

With `O=C(Nc1cc(C2CCCCC2)[nH]n1)c1ccc(Br)cc1`, the IC50 in test [1] amounted to 1000 nM.
